Measured values from ChEMBL document CHEMBL1143571 (J Med Chem, 2005).
pEC50, pKi: −log10 of the molar value.

What was measured:
D(3) dopamine receptor [1] = molecular target: T1, D(3) dopamine receptor (Homo sapiens, UniProt P35462); assay type: cell-based, CHO
Description: Inhibition constant against [3H]-spiperone binding to human Dopamine receptor D3 expressed in CHO cells

D(4) dopamine receptor [2] = molecular target: T2, D(4) dopamine receptor (Homo sapiens, UniProt P21917); assay type: cell-based, CHO
T2 sequence (P21917 whole entry): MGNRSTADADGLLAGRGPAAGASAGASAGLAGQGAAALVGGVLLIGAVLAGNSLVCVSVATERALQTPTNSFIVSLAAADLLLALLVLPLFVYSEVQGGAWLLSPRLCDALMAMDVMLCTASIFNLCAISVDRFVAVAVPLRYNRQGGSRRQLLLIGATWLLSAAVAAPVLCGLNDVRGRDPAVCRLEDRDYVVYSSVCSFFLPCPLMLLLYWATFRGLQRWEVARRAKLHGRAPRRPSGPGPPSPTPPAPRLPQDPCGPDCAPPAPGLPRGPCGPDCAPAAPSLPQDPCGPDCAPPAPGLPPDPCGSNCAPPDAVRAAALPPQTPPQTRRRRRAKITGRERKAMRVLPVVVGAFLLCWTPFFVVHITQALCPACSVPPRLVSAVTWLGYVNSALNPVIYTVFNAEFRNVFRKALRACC

D(3) dopamine receptor [3] = molecular target: T1, D(3) dopamine receptor
D(2) dopamine receptor [4] = molecular target: T3, D(2) dopamine receptor (Homo sapiens, UniProt P14416); assay type: cell-based, CHO
T3 sequence (P14416 whole entry): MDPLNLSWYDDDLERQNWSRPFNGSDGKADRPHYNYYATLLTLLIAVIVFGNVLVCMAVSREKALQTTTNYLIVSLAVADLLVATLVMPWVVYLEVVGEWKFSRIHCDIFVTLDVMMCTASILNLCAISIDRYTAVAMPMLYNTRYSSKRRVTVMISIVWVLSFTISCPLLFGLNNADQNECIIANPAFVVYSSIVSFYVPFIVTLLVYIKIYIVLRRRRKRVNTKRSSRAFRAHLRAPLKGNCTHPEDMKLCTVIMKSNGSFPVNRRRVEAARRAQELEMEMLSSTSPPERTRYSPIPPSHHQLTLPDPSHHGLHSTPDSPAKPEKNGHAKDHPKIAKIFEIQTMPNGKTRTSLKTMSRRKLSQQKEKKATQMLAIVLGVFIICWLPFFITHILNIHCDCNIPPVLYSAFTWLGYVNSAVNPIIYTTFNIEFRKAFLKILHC

D(2) dopamine receptor [5] = molecular target: T4, D(2) dopamine receptor (Rattus norvegicus, UniProt P61169); assay: Effective concentration to stimulate rat Dopamine receptor D2S mediated [3H]thymidine incorporation into growing cells using mitogenesis assay
T4 sequence (P61169 whole entry): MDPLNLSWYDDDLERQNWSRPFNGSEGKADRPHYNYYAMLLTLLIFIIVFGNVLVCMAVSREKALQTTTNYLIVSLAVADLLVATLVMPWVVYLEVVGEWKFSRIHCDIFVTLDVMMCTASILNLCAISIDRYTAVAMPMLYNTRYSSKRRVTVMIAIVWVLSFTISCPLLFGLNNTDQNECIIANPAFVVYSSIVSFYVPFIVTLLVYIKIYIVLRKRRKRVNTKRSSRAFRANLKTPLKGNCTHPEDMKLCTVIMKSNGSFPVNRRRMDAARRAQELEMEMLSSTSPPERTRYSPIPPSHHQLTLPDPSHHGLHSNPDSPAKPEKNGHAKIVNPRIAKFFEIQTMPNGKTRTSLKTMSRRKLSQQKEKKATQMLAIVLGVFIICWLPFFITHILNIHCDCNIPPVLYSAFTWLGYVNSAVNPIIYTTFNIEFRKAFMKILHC

[6] = molecular target: D(2) dopamine receptor (Rattus norvegicus) (UniProt P61169); assay: Intrinsic activity to stimulate rat Dopamine receptor D2S mediated [3H]-thymidine incorporation into growing cells using mitogenesis assay
Chain of D(2) dopamine receptor (Rattus norvegicus) (P61169 whole entry): as above

D(1A) dopamine receptor = D(1A) dopamine receptor (Bos taurus, UniProt Q95136); assay: Inhibition constant against [3H]SCH-23390 binding to Dopamine receptor D1 in bovine striatal membranes; assay type: cell membranes, Striatum, Membrane
Chain of D(1A) dopamine receptor (Q95136 whole entry): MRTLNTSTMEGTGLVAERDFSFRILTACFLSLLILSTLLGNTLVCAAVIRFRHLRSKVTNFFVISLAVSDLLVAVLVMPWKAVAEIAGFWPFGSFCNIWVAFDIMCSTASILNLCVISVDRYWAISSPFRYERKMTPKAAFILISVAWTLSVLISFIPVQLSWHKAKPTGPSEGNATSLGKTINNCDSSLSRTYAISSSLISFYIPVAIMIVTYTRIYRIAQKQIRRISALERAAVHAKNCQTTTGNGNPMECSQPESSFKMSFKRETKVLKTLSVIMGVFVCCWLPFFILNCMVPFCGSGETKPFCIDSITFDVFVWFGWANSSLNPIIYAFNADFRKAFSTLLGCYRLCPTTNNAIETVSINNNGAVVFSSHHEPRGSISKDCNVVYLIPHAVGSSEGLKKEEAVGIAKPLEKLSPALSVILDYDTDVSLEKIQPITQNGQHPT

[7] = molecular target: D(2) dopamine receptor (Rattus norvegicus) (UniProt P61169); assay: Intrinsic activity to sitmulate rat Dopamine receptor D2L mediated [3H]thymidine incorporation into growing cells using mitogenesis assay
D(2) dopamine receptor [8] = molecular target: T3, D(2) dopamine receptor; assay type: cell-based, CHO; remark: listed apart in the source
D(3) dopamine receptor [9] = molecular target: T1, D(3) dopamine receptor; remark: listed apart in the source
D(2) dopamine receptor [10] = molecular target: T3, D(2) dopamine receptor; assay type: cell-based, CHO; remark: listed apart in the source
Description: High inhibition constant against [3H]spiperone binding to human Dopamine receptor D2L expressed in CHO cells

D(2) dopamine receptor [11] = molecular target: T4, D(2) dopamine receptor; assay: Effective concentration to stimulate rat Dopamine receptor D2L mediated [3H]thymidine incorporation into growing cells using mitogenesis assay
D(4) dopamine receptor [12] = molecular target: T2, D(4) dopamine receptor; assay type: cell-based, CHO; remark: listed apart in the source
Description: High inhibition constant against [3H]spiperone binding to human Dopamine receptor D4.4 expressed in CHO cells

D(2) dopamine receptor [13] = molecular target: T3, D(2) dopamine receptor; assay type: cell-based, CHO; remark: listed apart in the source
D(3) dopamine receptor [14] = molecular target: T1, D(3) dopamine receptor; remark: listed apart in the source
Description: Effective concentration to stimulate human Dopamine receptor D3 mediated [3H]-thymidine incorporation into growing cells using mitogenesis assay

D(4) dopamine receptor [15] = molecular target: T2, D(4) dopamine receptor
Description: Effective concentration to stimulate human Dopamine receptor D4.2 mediated [3H]thymidine incorporation into growing cells using mitogenesis assay

T1 sequence (P35462 whole entry): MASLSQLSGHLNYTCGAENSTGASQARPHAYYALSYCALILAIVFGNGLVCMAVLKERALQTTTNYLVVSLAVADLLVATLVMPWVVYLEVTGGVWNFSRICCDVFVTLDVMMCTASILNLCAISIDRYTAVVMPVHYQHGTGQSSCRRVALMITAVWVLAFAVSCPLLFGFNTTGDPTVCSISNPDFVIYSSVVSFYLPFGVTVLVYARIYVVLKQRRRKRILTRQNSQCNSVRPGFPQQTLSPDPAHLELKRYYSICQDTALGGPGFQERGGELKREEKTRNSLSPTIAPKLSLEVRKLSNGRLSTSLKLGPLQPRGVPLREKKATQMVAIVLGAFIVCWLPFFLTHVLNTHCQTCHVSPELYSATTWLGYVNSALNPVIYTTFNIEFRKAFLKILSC

pKi (D(3) dopamine receptor [1]) | Compound | further results
7.51 | CCCN(CCC)[C@H]1CCn2c(/C=N/O)ccc2C1 | 
6.14 | CCCN(CCC)[C@@H]1CCn2c(CO)ccc2C1 | 
7.34 | CCCN(CCC)[C@H]1CCn2c(ccc2C(C)=O)C1 | 
5.32 | CCCN(CCC)[C@@H]1CCn2c(/C=N\O)ccc2C1 | 
5.68 | CCCN(CCC)[C@@H]1CCn2c(/C=N/O)ccc2C1 | 
7.31 | CCCN(CCC)[C@H]1CCn2c(/C=N\O)ccc2C1 | 
6.38 | CCCN(CCC)[C@H]1CCn2c(C)ccc2C1 | 
6.21 | CCCN(CCC)[C@@H]1CCn2c(C)ccc2C1 | 
8.14 | CCCN(CCC)[C@H]1CCn2c(C#N)ccc2C1 | pKi (D(4) dopamine receptor [2]): 5.01; pKi (D(3) dopamine receptor [3]): 8.14; pKi (D(2) dopamine receptor [4]): 5.29; pEC50 (D(2) dopamine receptor [5]): 6.89; Intrinsic activity [6]: 95%; pKi (D(1A) dopamine receptor): < 4.70; Intrinsic activity [7]: 99%; pKi (D(2) dopamine receptor [8]): 6.89; pKi (D(3) dopamine receptor [9]): 6.85; pKi (D(2) dopamine receptor [10]): 6.72; pEC50 (D(2) dopamine receptor [11]): 7.38; pKi (D(4) dopamine receptor [12]): 7.40; pKi (D(2) dopamine receptor [13]): 5.19; pEC50 (D(3) dopamine receptor [14]): 8.62
5.44 | CCCN(CCC)[C@H]1CCn2c(ccc2CN(C)C)C1 | 
7.22 | CCCN(CCC)[C@H]1CCn2c(C=C(C#N)C#N)ccc2C1 | 
8.28 | CCCN(CCC)[C@H]1CCn2c(C=O)ccc2C1 | pKi (D(4) dopamine receptor [2]): 5.60; pKi (D(3) dopamine receptor [3]): 8.28; pKi (D(2) dopamine receptor [4]): 5.52; pEC50 (D(2) dopamine receptor [5]): 7.10; pEC50 (D(4) dopamine receptor [15]): 5.38; Intrinsic activity [6]: 101%; pKi (D(1A) dopamine receptor): < 4.70; Intrinsic activity [7]: 98%; pKi (D(2) dopamine receptor [8]): 7.39; pKi (D(2) dopamine receptor [10]): 7.28; pEC50 (D(2) dopamine receptor [11]): 7.96; pKi (D(4) dopamine receptor [12]): 7.49; pKi (D(2) dopamine receptor [13]): 5.16; pEC50 (D(3) dopamine receptor [14]): 8.96
5.22 | CCCN(CCC)[C@@H]1CCn2c(C=C(C#N)C#N)ccc2C1 | 
5.55 | CCCN(CCC)[C@@H]1CCn2c(C#N)ccc2C1 | 
5.55 | CCCN(CCC)[C@@H]1CCn2c(ccc2C(C)=O)C1 | 

The remaining lines, values behind:

Compound | pKi (D(3) dopamine receptor [1]) | further results
CCCN(CCC)[C@@H]1CCn2c(ccc2CN(C)C)C1 | 4.92 | 
CCCN(CCC)[C@H]1CCn2c(ccc2-c2ccccc2)C1 | 5.10 | 
CCCN(CCC)[C@@H]1CCn2cc(C)cc2C1 | 6.04 | 
CCCN(CCC)[C@H]1CCn2c(ccc2C(=O)OCC)C1 | 5.36 | 
CCCN(CCC)[C@H]1CCn2cc(C)cc2C1 | 6.10 | 
CCCN(CCC)[C@@H]1CCn2ccc(CO)c2C1 | 6.49 | 
CCCN(CCC)[C@@H]1CCn2c(ccc2-c2ccccc2)C1 | 5.62 | 
CCCN(CCC)[C@H]1CCn2ccc(C)c2C1 | 6.17 | 
CCCN(CCC)[C@@H]1CCc2c(ccn2C=O)C1 | 7.36 | 
CCCN(CCC)[C@@H]1CCn2c(ccc2C(=O)OCC)C1 | 6.49 | 
CCCN(CCC)[C@@H]1CCn2c(ccc2C(=O)C(F)(F)F)C1 | 5.60 | 
CCCN(CCC)[C@@H]1CCn2c(ccc2C(=O)C(Cl)(Cl)Cl)C1 | 7.06 | 
CCCN[C@H]1CCc2nc(N)sc2C1 [PRAMIPEXOLE] |  | Intrinsic activity [6]: 103%; pKi (D(1A) dopamine receptor): < 4.70; Intrinsic activity [7]: 85%
CCCN(CCC)[C@@H]1CCn2ccc(C)c2C1 | 5.84 | 
CCCN(CCC)[C@H]1CCc2c(ccn2C=O)C1 | 7.41 | 
CCCN(CCC)[C@@H]1CCn2c(ccc2C(=O)c2ccccc2)C1 | 5.81 | 
CCCN(CCC)[C@@H]1CCn2cccc2C1 | 5.78 | 
CCCN(CCC)[C@@H]1CCn2ccc(C=O)c2C1 | 6.30 | 
Oc1ccc2c(c1O)-c1cccc3c1[C@@H](C2)NCC3 | 7.23 | 
CCCN(CCC)[C@H]1CCn2c(ccc2C(=O)C(Cl)(Cl)Cl)C1 | 6.58 | 
CCCN(CCC)[C@H]1CCn2c(ccc2C(=O)C(F)(F)F)C1 | 7.64 | 
CCCN(CCC)[C@H]1CCn2cccc2C1 | 6.24 | 
CCCN(CCC)[C@H]1CCn2c(ccc2C(=O)c2ccccc2)C1 | 5.72 | 
